Laboratory results from patent publication US5336485A, “Method for protecting animals against tacrine induced cytotoxic injury using sterol compounds” (priority 1993, dated 1994).
Structures can show the parent of a compound that is named as a salt.

Columns and labels:
rat hepatocytes [1] = test: EMS-induced cytotoxicity (LDH leakage/cell death) in rat hepatocyte suspensions; settings: for Protection From Toxic Injury: EMS 3 h
Experimental: To determine if alpha-TS is a cytoprotective agent under physiological conditions, liver cells were incubated with Waymouth's medium containing approximately 1 mM extracellular Ca^2+ in the presence and absence of alpha-TS.
(§1) At each time-point, rapid separation of viable from non-viable hepatocytes and medium was accomplished by the dibutyl phthalate centrifugation method. Cell viability was monitored hourly by measuring LDH leakage with a Cobas Analyzer and intracellular [K^+ ]with a flame photometer. LDH was routinely measured in the medium while intracellular K^+ was measured in the 10% perchloric acid lysate of viable cells. Lipid peroxidation was determined by measuring TBA reactants in the medium. […] The samples were diluted with 0.3 ml 1% ascorbate in 0.1 M SDS, 0.4 ml ethanol, sonicated and extracted once with 0.8 ml hexane. Next, the hexane extract was evaporated to dryness with N2, the residue dissolved in 2.5% ascorbate in methanol (1 ml) and analyzed (100 μl) by high-performance liquid chromatograph (HPLC). […] The mobile phase, 95% MeOH was run isocratically and the HPLC retention times for delta and alpha-tocopherol were approximately eleven and sixteen minutes, respectively. […] Following the addition of 0.2 ml 4 M HC1, the neutralized KOH-MeOH extracted with 0.8 ml hexane. […] A standard curve for each tocopherol congener was run with every assay. […] Only viable cells were monitored in the laboratory procedures.
To determine the relative cytoprotective potency of various tocopherol derivatives, the effect of varying doses of a tocopherol analog on the protection against EMS-induced toxicity was examined in vitro on rat hepatocyte suspensions. Specifically, the following ionizable tocopherol congeners were tested: alpha-TS, alpha tocopheryl glutarate (alpha-TG), and alpha tocopheryl phosphate (alpha-TP). […] 0.1 nmoles is the lower detection limit.
In vitro experiments were conducted with a variety of different tocopherol and succinate analogs to determine which were protective against EMS induced toxicity. After five hours of incubation with 50 mM EMS and 25μM of a tocopherol or succinate analog, cytoprotection was determined by comparing the percentage of LDH leakage from control hepatocytes (vehicle only, assumed 100% protection) with the EMS only treated cells (assumed 0% protection).
An in vitro experiment with rat hepatocyte suspensions was performed to determine the effect of esterase inhibitors on alpha-TS.
(§2) Rat hepatocyte suspensions were subjected to 50 mM EMS and the percentage of cell death, the percentage of intracellular K^+ (a metabolic parameter as discussed above), the depletion of ATP and the effect on lipid peroxidation were monitored.

rat hepatocytes [2] = test: Cellular alpha-tocopherol and tocopherol ester content of rat hepatocytes; settings: for Hepatocyte Concentration Alpha-T: EMS 3 h
Experimental: as §1
The hepatocytes were subsequently exposed to 50mM EMS for three hours.

rat hepatocytes [3] = test: ATP content of rat hepatocyte suspensions; assay type: cell-based
Excerpt: It is well known that the succinate molecule is utilized by the cell to produce ATP energy. In the tricarboxylic acid cycle, succinate is oxidized by succinate dehydrogenase to produce ATP. Oxidation occurs in the mitochondria and the mitochondria can utilize both succinate formed in the mitochondria or succinate transported to the mitochondria. Increasing ATP production may enhance cellular repair processes as well as normal metabolic processes. For example, the cell's ability to remove free intracellular Ca^2+ during a toxic insult is related to ATP production. Succinate administration stimulates gluconeogenesis to form glucose 6-phosphate which is used for producing energy anaerobically (ATP formation through glycolysis) and for producing reducing equivalents (NADPH formation through the hexose monophosphate shunt needed for lipid and nucleotide biosynthesis and other biosynthetic reductions and enzymatic reactions, e.g., glutathione reductase). An in vitro experiment was conducted to determine the relationship between the release of succinate from alpha-TS and the cellular ATP level. The experiment was performed by incubating a tocopherol analog in a rat hepatocyte suspension and measuring the ATP level at the beginning and end of the test.
as §2

male Sprague-Dawley rats = test: CCl4 induced lethality in rats; assay type: in vivo, rat
Experimental: The in vivo effect of alpha-TS was tested by administering a lethal oral dose of carbon tetrachloride (CC14) to male Sprague-Dawley rats.
In the experiment described in Table 3, a single dose of alpha-TS dissolved in peanut oil:ethanol (3:2) was given to male Sprague-Dawley rats. The dose was given 24 hours prior to an orally administered CCl4 challenge dissolved in peanut oil. Two to nine animals were tested per treatment. The control group comprised rats pretreated with the vehicle only. Survival was monitored for at least 7 days after the toxic insult.
In vivo experiments were performed to determine if the time the ionizable tocopherol analog (alpha-TS) is administered affects the cytoprotective functions. Male Sprague-Dawley rats were given a 100 mg/kg intraperitoneal dose of a tocopherol or succinate analog and were given a lethal dose of CCl4 (2.9g/kg by oral gavage). Table 7 contrasts the times of administration of the tocopherol or succinate analog and the times of administration of the lethal dose of CCl4 with the survival of the rats in the study (3to 6 rats per protective treatment).
Several tocopherol and succinate analogs were tested for CCl4 induced lethality. A single dose of the tocopherol or succinate analog was administered twenty four hours prior to orally administering 2.9 g CCl4 /kg body weight. Three to six animals were analyzed per treatment. The rats were monitored for seven days. […]

cultured rat hepatocytes = test: EMS-induced toxicity and lipid peroxidation in primary cultures of rat hepatocytes; assay type: cell-based; settings: for Cell Death / Lipid Peroxidation: 50 mM EMS, 6 hrs
Experimental: To confirm the cytoprotective properties of alpha-TP under physiological conditions in vitro tests using primary cultures of adult rat hepatocytes were conducted (another in vitro model system). Unlike the hepatocyte suspensions used for the in vitro modeling discussed above, cultured hepatocytes retain their in vivo cuboidal shape as a result of attachment to a collagen matrix, and their lifespan in vitro is 5 to 7 days, instead of 8-12 hours (as with suspensions).

liver [4] = test: Partial liver ischemia/reperfusion-induced injury in rats; assay type: in vivo, rat; settings: dihydrocholesterol sulfate vs dihydrocholesterol plus sodium sulfate
Experimental: 20 hours prior to global occlusion, one group of 10 rats was provided with 64 mg cholesterol/kg body weight and 100 mg tris succinate/kg body weight by i.p. injection, and another group of 10 rats was provided with 100 mg cholesteryl succinate/kg body weight. A control group of rats was only partially occluded for the one hour period. Ninety percent of the rats pretreated with cholesteryl succinate tris salt survived while only 10% of those pretreated with the combination of cholesterol and tris succinate survived. Table 22 of a partial ischemia study where male Sprague-Dawley rats were subjected to occlusion of the blood supply to the left lateral and median lobes of the liver for 60 minutes followed by reperfusion for 24 hours. During this time, the normal blood supply to the other lobes of the liver was maintained. […] Serum was obtained for AST and ALT measurements.
^a Partial liver ischemia was induced in male Sprague Dawley rats

liver [5] = test: CCl4 induced hepatotoxicity in rats (serum AST/ALT); assay type: in vivo, rat
Experimental: In vivo experiments were performed to determine if alpha-TS administration protects the liver from chemical toxicity. The liver is the target organ for CCl4. CCl4 is a hepatotoxic agent that induces centrilobular liver necrosis through its metabolism to free radicals. Male Sprague-Dawley rats were given an intraperitoneal dose (100 mg/kg) of a tocopherol analog 24 hours prior to a CCl4 challenge (2.9g/kg given by oral garage). Forty eight hours after the challenge, the rats were sacrificed and the levels of aspartate aminotransferase (AST) and alanine aminotransferase (ALT) were measured.
As discussed above, SGOT levels provide a clinical assessment of hepatotoxicity (liver damage).
Succinate analogs were administered to male Sprague-Dawley rats 20 hours prior to a 1 g CCl4 /kg body weight oral challenge and the AST and ALT serum enzyme levels were measured 48 hours after the challenge.
Similar to the experiments were described above, the ionizable congeners were administered to Sprague-Dawley rats by i.p. injection of a 100 mg ionizable congener/kg body weight dose 20 hours prior to oral administration of a 1 g/kg dose of CCl4, and the AST and ALT levels were measured 48 hours after the CCl4 challenge.

[6] = Tissue distribution of alpha-tocopherol and alpha-tocopherol ester in rats; assay type: in vivo, rat; settings: 100 mg/kg ip, 24 h
Experimental: 100 mg/kg body weight of a tocopherol analog was administered to Sprague-Dawley rats using a peanut oil:ethanol vehicle (3:2). Twenty four hours later the rats were sacrificed and the accumulation of the tocopherol analog in the liver was determined.
A similar in vivo experiment to that discussed in conjunction with Table 5 was performed to determine if other tissues accumulate alpha-TS. Male Sprague-Dawley rats were given a 100 mg/kg dose of alpha-TS using a variety of chemical forms and vehicles. A variety of techniques were used to administer the alpha-TS. Twenty four hours later the rats were sacrificed and the tissues were tested for alpha-TS accumulation.

rat hepatocytes [7] = test: EMS-induced lipid peroxidation in rat hepatocyte suspensions; assay type: cell-based; settings: Rattus norvegicus, Hepatocyte; 25 μM, 50 mM EMS
Experimental: as §1, §2

[8] = 100 mg/kg, single dose 24 h prior, CCl4 […]
[9] = 100 mg/kg ip (dihydrocholesterol 80 + sodium sulfate 30 mg/kg), 48 h after 1 g/kg CCl4 (Table 35)
[10] = 100 mg/kg ip, PEG 400 vehicle, 48 h after 1 g/kg CCl4 (Table 34)

## Cc1c(C)c2c(c(C)c1OP(=O)(O)O)CCC(C)(CCCC(C)CCCC(C)CCCC(C)C)O2 (racemic) [alpha-TP, dl-alpha-tocopheryl phosphate]
Rat hepatocytes [1]; Rattus norvegicus, Hepatocyte, read-out: medium concentration with significant protection against EMS toxicity
  minimal effective concentration: ≥ 50 µM
Rat hepatocytes [2]; EMS
  cellular accumulation of alpha-TP: 2.68 nmols/10^6 cells
Rat hepatocytes [3]; 50 μM
  Rate of ATP Depletion: 2.0 ± 0.2 nmoles/10^6 cell/hr
Rat hepatocytes [3]; 50 μM, 0 Hr
  Cellular ATP: 19.4 ± 1.6 nmoles/10^6 cells
Rat hepatocytes [3]; 50 μM, 6 Hr
  Cellular ATP: 7.3 ± 0.2 nmoles/10^6 cells
Male Sprague-Dawley rats; [8]
  Days Survived After CCl4 Treatment: 3 days
Cultured rat hepatocytes; 25 μM
  Cell Death: 16 ± 3%
  Lipid Peroxidation: 2.5 ± 0.9 μmoles MDA/10^6 cells
Cultured rat hepatocytes; 100 μM
  Cell Death: 15 ± 3%
  Lipid Peroxidation: 2.3 ± 0.1 μmoles MDA/10^6 cells
Cultured rat hepatocytes; 250 μM
  Cell Death: 20 ± 3%
  Lipid Peroxidation: 1.7 ± 0.1 μmoles MDA/10^6 cells
Cultured rat hepatocytes; 3.5 mM Ca2+
  cytoprotection at 3.5 mM extracellular Ca2+: eliminated

## CC(C)CCC[C@@H](C)[C@H]1CC[C@H]2[C@@H]3CC[C@H]4C[C@@H](OS(=O)(=O)O)CC[C@]4(C)[C@H]3CC[C@]12C [Dihydrocholesterol sulfate, sodium salt]
Liver [4]
  ALT: 1305±568
Liver [5]; [9]
  ALT: 0.02 ± 0.01 10^3 units/L
  AST: 0.17 ± 0.04 10^3 units/L
Liver [5]; [10]
  ALT: 0.03 ± 0.03 10^3 units/L
  AST: 0.15 ± 0.07 10^3 units/L
Liver [5]; Rattus norvegicus, ip, 48 h, read-out: % Hepatoprotection
  inhibition in vivo at 100 mg/kg: 100%
Liver [5]; rats, serum enzyme levels
  protection against CCl4 hepatotoxicity (in words): complete protection against hepatotoxicity

## Cc1c(C)c2c(c(C)c1O)CC[C@@](C)(CCC[C@H](C)CCC[C@H](C)CCCC(C)C)O2 [alpha-T, d-alpha-tocopherol, reference compound]
Rat hepatocytes [1]; 25 μM
  Protection From Toxic Injury: No
Rat hepatocytes [1]; 50 μM
  Protection From Toxic Injury: No
Rat hepatocytes [1]; 250 μM
  Protection From Toxic Injury: No
Rat hepatocytes [1]; Rattus norvegicus, Hepatocyte, 5 h, read-out: Percent Cytoprotection
  inhibition at 25 µM: 8 ± 10%
Rat hepatocytes [1]; Rattus norvegicus, Hepatocyte, read-out: % Protection
  inhibition at 25 µM: 19%
Rat hepatocytes [1]; up to 250 μM
  protection of hepatocytes against EMS: Protection was not afforded
Rat hepatocytes [2]; 25 μM
  Hepatocyte Concentration Alpha-T: 2.1 ± 0.7 nmol/10^6 cells
Rat hepatocytes [2]; 25 μM, Table 2
  Cellular alpha-T: 2.6 nmoles/10^6 cells
Rat hepatocytes [2]; 50 μM
  Hepatocyte Concentration Alpha-T: 6.1 ± 0.7 nmol/10^6 cells
Rat hepatocytes [2]; 250 μM
  Hepatocyte Concentration Alpha-T: 23.7 ± 2.4 nmol/10^6 cells
Rat hepatocytes [3]; 25 μM
  Rate of ATP Depletion: 1.5 ± 0.2 nmoles/10^6 cell/hr
Rat hepatocytes [3]; 25 μM, 0 Hr
  Cellular ATP: 15.2 ± 1.6 nmoles/10^6 cells
Rat hepatocytes [3]; 25 μM, 6 Hr
  Cellular ATP: 6.3 ± 0.8 nmoles/10^6 cells
[6]
  Liver Concentration Alpha-T: 128 ± 10 nmol/g
Male Sprague-Dawley rats; 100 mg/kg ip 24 h prior, […] CCl4 oral
  Survival after CCl4 treatment: No
Male Sprague-Dawley rats; 100 mg/kg ip (Table 5)
  Protection from CCl4: No
Male Sprague-Dawley rats; 100 mg/kg ip, 24 h prior, CCl4 2.2 g/kg
  Days Survived After CCl4 Treatment: 3 days
Male Sprague-Dawley rats; 100 mg/kg ip, 24 h prior, CCl4 3.8 g/kg
  Days Survived After CCl4 Treatment: 2 days
Male Sprague-Dawley rats; 100 mg/kg ip, 24 h prior, CCl4 5.0 g/kg
  Days Survived After CCl4 Treatment: 2 days
Male Sprague-Dawley rats; 100 mg/kg ip, 24 h prior, CCl4 […]
  Days Survived After CCl4 Treatment: 2 days
Male Sprague-Dawley rats; [8]
  Days Survived After CCl4 Treatment: 3 days
Male Sprague-Dawley rats; CCl4 1.7 g/kg
  Days Survived after CCl4: three
Rat hepatocytes [7]
  inhibition at 25 µM: 9%
